Laboratory results reported in ChEMBL document CHEMBL1155523, “Synthesis and biological activity of alpha-L-fucosyl ceramides, analogues of the potent agonist, alpha-D-galactosyl ceramide KRN7000” (2010).

test system: iNKT; test: Effect on immune response in human iNKT cells stimulated by antigen-presenting CD1d assessed as cellular expansion at 250 nM after 8 days by FACSCalibur flow cytometry relative to control; format: functional

Row | Compound | Activity
1 | CCCCCCCCCCCCCCCCC(O)C(=O)N[C@@H](CO[C@@H]1O[C@@H](C)[C@@H](O)[C@H](O)[C@@H]1O)[C@H](O)[C@H](O)CCCCCCCCCCCCCC (stereo not given in full) | 2.9%
2 | CCCCCCCCCCCCCCCCCCCCCCCCCC(=O)N[C@@H](CO[C@@H]1O[C@@H](C)[C@@H](O)[C@H](O)[C@@H]1O)[C@H](O)[C@H](O)CCCCCCCCCCCCCC | 12%
3 | CCCCC/C=C\C/C=C\CCCCCCCCCC(=O)N[C@@H](CO[C@@H]1O[C@@H](C)[C@@H](O)[C@H](O)[C@@H]1O)[C@H](O)[C@H](O)CCCCCCCCCCCCCC | 0.56%
4 | CCCCCCCCCCCCCCCCCCCCCCCC(=O)N[C@@H](CO[C@@H]1O[C@@H](C)[C@@H](O)[C@H](O)[C@@H]1O)[C@H](O)[C@H](O)CCCCCCCCCCCCCC | 1.1%
5 | CCCCCCCCCCCCCCCCCCCCCCCCCC(=O)N[C@@H](CO[C@H]1O[C@H](CO)[C@H](O)[C@H](O)[C@H]1O)[C@H](O)[C@H](O)CCCCCCCCCCCCCC [RGI-7000] | 26%
